Test results as given in patent US20030083237A1, “Anti-angiogenic peptides for cancer treatment” (priority 2001, published 2003).
Ends that are not written are not given here. Peptide text beside a SMILES is read from it.

System: BCE cells (Bovine Capillary Endothelial cells)
Assay type: cell-based
Details: for inhibiting the growth of BCE cells (in-vitro inhibition studies, FIG. 2): result in words
Description: The inhibition of said peptides on the endothelial cells was performed on BCE cells (Bovine Capillary Endothelial cells) as shown in Example 9. The inhibition of said peptide on the endothelial cells was performed on BCE cells (Folkman et al, Proceedings of the National Academy of Sciences USA. 76: 5217-5221 (1979)). The medium contains 90% DMEM (Dulbecco's Modified Eagle Medium), 10% FBS (fetal bovine serum), and 2 ng/mL of bFGF (basic fibroblast growth factor). A 24-well platelet was used for the growth of the BCE cells. To each well, 8,000-10,000 cells and 0.5 mL of the medium were added. The medium in each of the test wells was replaced by medium containing P1, P2, P3, P4, P5, P6, P7, or AK38 after 12 hours and continue to grow 5-7 days at 37° C. the BCE cells, in comparison to the control samples, to evaluate the inhibition on the growth of endothelial cells. The concentration inhibiting 50% of the cell growth is defined as IC50. […] (FIG. 6)

Row | Molecule | IC50 | inhibiting the growth of BCE cells (in-vitro inhibition studies, FIG. 2)
1 | CC[C@H](C)[C@H](NC(=O)[C@H](CC(=O)O)NC(=O)CNC(=O)[C@H](CC(=O)O)NC(=O)[C@@H]1CCCN1C(=O)[C@H](CC(N)=O)NC(=O)[C@H](CCCNC(=N)N)NC(C)=O)C(=O)N[C@@H](CC(N)=O)C(=O)NCC(=O)N1CCC[C@H]1C(=O)N[C@@H](Cc1c[nH]c2ccccc12)C(N)=O [Peptide P4, Arg-Asn-Pro-Asp-Gly-Asp-Ile-Asn-Gly-Pro-Trp] (Ac-RNPDGDINGPW-NH2) | 100 nM | very effective
2 | CSCC[C@H](NC(=O)[C@@H](NC(=O)[C@H](Cc1ccc(O)cc1)NC(C)=O)[C@@H](C)O)C(=O)N[C@@H](CC(N)=O)C(=O)N1CCC[C@H]1C(=O)N[C@@H](CCCNC(=N)N)C(=O)N[C@@H](CCCCN)C(=O)N[C@@H](CC(C)C)C(=O)N[C@@H](Cc1ccccc1)C(=O)N[C@@H](CC(=O)O)C(=O)N[C@@H](Cc1ccc(O)cc1)C(N)=O [Peptide P5, Tyr-Thr-Met-Asn-Pro-Arg-Lys-Leu-Phe-Asp-Tyr] (Ac-YTMNPRKLFDY-NH2) | 45 nM | very effective
3 | ASSSFD [Peptide P7, protected form of peptide {7} of AK38 kringle] |  | none of the four peptides (P1, P2, P6, and P7) is significantly effective
4 | Asp-Ile-Pro-Leu (DIPL; printed: Asp-Ile-Pro-Leu) [Peptide P6, protected form of peptide {6} of AK38 kringle] |  | none of the four peptides (P1, P2, P6, and P7) is significantly effective
5 | IVPSLGPPSEQD [Peptide P1, protected form of peptide {1} of AK38 kringle] |  | none of the four peptides (P1, P2, P6, and P7) is significantly effective
6 | MFGNGKGYRGKKATTVTGTP [Peptide P2, protected form of peptide {2} of AK38 kringle] |  | none of the four peptides (P1, P2, P6, and P7) is significantly effective
7 | QQWAAQEPHRHSTFIPGTNKWAGLEKNY [Peptide P3, protected form of peptide {3} of AK38 kringle] |  | minor inhibition effect
